From the supplement of paper PMC6315032

Tests used:
Test in all cases: apparent dissociation constant (pKDapp, Kinobeads competition, Cheng-Prusoff corrected) (-log10 M); higher = tighter binding
CSNK2A2 = CSNK2A2 (UniProt P19784)
CDC7 = CDC7 (UniProt O00311); details: affinity matrix / lysate: Kinobeads, mixed HEK293/K-562/placenta lysate
STK11 = STK11 (UniProt Q15831); details: affinity matrix / lysate: Kinobeads, mixed HEK293/K-562/placenta lysate
FRK = FRK (UniProt P42685); details: affinity matrix / lysate: Kinobeads, mixed HEK293/K-562/placenta lysate
SNRK = SNRK (UniProt Q9NRH2); details: affinity matrix / lysate: Kinobeads, mixed HEK293/K-562/placenta lysate
FES = FES (UniProt P07332); details: affinity matrix / lysate: Kinobeads, mixed HEK293/K-562/placenta lysate
PIK3CB = PIK3CB (UniProt P42338); details: affinity matrix / lysate: Lipid Kinobeads, mixed HeLa/Jurkat/K-562 lysate
BMPR2 = BMPR2 (UniProt Q13873); details: affinity matrix / lysate: Kinobeads, mixed HEK293/K-562/placenta lysate
MAP3K5 = MAP3K5 (UniProt Q99683); details: affinity matrix / lysate: Kinobeads, mixed HEK293/K-562/placenta lysate
ACVR2A = ACVR2A (UniProt P27037); details: affinity matrix / lysate: Kinobeads, mixed HEK293/K-562/placenta lysate
MAP3K6 = MAP3K6 (UniProt O95382); details: affinity matrix / lysate: Kinobeads, mixed HEK293/K-562/placenta lysate
MAPK14 = MAPK14 (UniProt Q16539); details: affinity matrix / lysate: Kinobeads, mixed HEK293/K-562/placenta lysate
MKNK1 = MKNK1 (UniProt Q9BUB5); details: affinity matrix / lysate: Kinobeads, mixed HEK293/K-562/placenta lysate
STRADA = STRADA (UniProt Q7RTN6); details: affinity matrix / lysate: Kinobeads, mixed HEK293/K-562/placenta lysate
PIP5K3 = PIP5K3 (UniProt Q9Y2I7); details: affinity matrix / lysate: Kinobeads, mixed HEK293/K-562/placenta lysate
MAPK3 = MAPK3 (UniProt P27361); details: affinity matrix / lysate: Kinobeads, mixed HEK293/K-562/placenta lysate
IKBKE = IKBKE (UniProt Q14164); details: affinity matrix / lysate: Kinobeads, mixed HEK293/K-562/placenta lysate
MAPK9 = MAPK9 (UniProt P45984); details: affinity matrix / lysate: Kinobeads, mixed HEK293/K-562/placenta lysate
MAP2K2 = MAP2K2 (UniProt P36507); details: affinity matrix / lysate: Kinobeads, mixed HEK293/K-562/placenta lysate
CSK = CSK (UniProt P41240); details: affinity matrix / lysate: Kinobeads, mixed HEK293/K-562/placenta lysate
SRC = SRC (UniProt P12931); details: affinity matrix / lysate: Kinobeads, mixed HEK293/K-562/placenta lysate
MARK3 = MARK3 (UniProt P27448); details: affinity matrix / lysate: Kinobeads, mixed HEK293/K-562/placenta lysate
HIPK2 = HIPK2 (UniProt Q9H2X6); details: affinity matrix / lysate: Kinobeads, mixed HEK293/K-562/placenta lysate
TNIK = TNIK (UniProt Q9UKE5); details: affinity matrix / lysate: Kinobeads, mixed HEK293/K-562/placenta lysate
BTK = BTK (UniProt Q06187); details: affinity matrix / lysate: Kinobeads, mixed HEK293/K-562/placenta lysate
DSTYK = DSTYK (UniProt Q6XUX3); details: affinity matrix / lysate: Kinobeads, mixed HEK293/K-562/placenta lysate
ERBB4 = ERBB4 (UniProt Q15303); details: affinity matrix / lysate: Kinobeads, mixed HEK293/K-562/placenta lysate
RPS6KA4 = RPS6KA4 (UniProt O75676); details: affinity matrix / lysate: Kinobeads, mixed HEK293/K-562/placenta lysate
PRKD3 = PRKD3 (UniProt O94806); details: affinity matrix / lysate: Kinobeads, mixed HEK293/K-562/placenta lysate
PIK3CG = PIK3CG (UniProt P48736); details: affinity matrix / lysate: Lipid Kinobeads, mixed HeLa/Jurkat/K-562 lysate
MAST2 = MAST2 (UniProt Q6P0Q8); details: affinity matrix / lysate: Kinobeads, mixed HEK293/K-562/placenta lysate
ILK = ILK (UniProt Q13418); details: affinity matrix / lysate: Kinobeads, mixed HEK293/K-562/placenta lysate
CDK5 = CDK5 (UniProt Q00535); details: affinity matrix / lysate: Kinobeads, mixed HEK293/K-562/placenta lysate
[1] = affinity matrix / lysate: Kinobeads, mixed HEK293/K-562/placenta lysate
[2] = affinity matrix / lysate: Lipid Kinobeads, mixed HeLa/Jurkat/K-562 lysate

| apparent dissociation constant (-log10 M) (CSNK2A2; [1]) | apparent dissociation constant (-log10 M) (CSNK2A2; [2]) | apparent dissociation constant (-log10 M) (CDC7) | apparent dissociation constant (-log10 M) (STK11) | apparent dissociation constant (-log10 M) (FRK) | apparent dissociation constant (-log10 M) (SNRK) | apparent dissociation constant (-log10 M) (FES) | apparent dissociation constant (-log10 M) (PIK3CB) | apparent dissociation constant (-log10 M) (BMPR2) | apparent dissociation constant (-log10 M) (MAP3K5) | apparent dissociation constant (-log10 M) (ACVR2A) | apparent dissociation constant (-log10 M) (MAP3K6) | apparent dissociation constant (-log10 M) (MAPK14) | apparent dissociation constant (-log10 M) (MKNK1) | apparent dissociation constant (-log10 M) (STRADA) | apparent dissociation constant (-log10 M) (PIP5K3) | apparent dissociation constant (-log10 M) (MAPK3) | apparent dissociation constant (-log10 M) (IKBKE) | apparent dissociation constant (-log10 M) (MAPK9) | apparent dissociation constant (-log10 M) (MAP2K2) | apparent dissociation constant (-log10 M) (CSK) | apparent dissociation constant (-log10 M) (SRC) | apparent dissociation constant (-log10 M) (MARK3) | apparent dissociation constant (-log10 M) (HIPK2) | apparent dissociation constant (-log10 M) (TNIK) | apparent dissociation constant (-log10 M) (BTK) | apparent dissociation constant (-log10 M) (DSTYK) | apparent dissociation constant (-log10 M) (ERBB4) | apparent dissociation constant (-log10 M) (RPS6KA4) | apparent dissociation constant (-log10 M) (PRKD3) | apparent dissociation constant (-log10 M) (PIK3CG) | apparent dissociation constant (-log10 M) (MAST2) | apparent dissociation constant (-log10 M) (ILK) | apparent dissociation constant (-log10 M) (CDK5) | SMILES |
| --- | --- | --- | --- | --- | --- | --- | --- | --- | --- | --- | --- | --- | --- | --- | --- | --- | --- | --- | --- | --- | --- | --- | --- | --- | --- | --- | --- | --- | --- | --- | --- | --- | --- | --- |
| < 6 | < 6 | < 6 | < 6 | < 6 | < 6 | < 6 | < 6 | < 6 | < 6 | < 6 | < 6 | < 6 | < 6 | < 6 | < 6 | < 6 | < 6 | < 6 | < 6 | < 6 | < 6 | < 6 | < 6 | < 6 | < 6 | < 6 | < 6 | < 6 | < 6 | < 6 | < 6 | < 6 | < 6 | COc1ccc(-c2ccc3c(N4CCOC[C@@H]4C)nc(N4CCOC[C@@H]4C)nc3n2)cc1CO [AZD8055] |
| < 6 | < 6 | < 6 | < 6 | < 6 | < 6 | < 6 | < 6 | < 6 | < 6 | < 6 | < 6 | < 6 | < 6 | < 6 | < 6 | < 6 | < 6 | < 6 | < 6 | < 6 | < 6 | < 6 | < 6 | < 6 | < 6 | < 6 | < 6 | < 6 | < 6 | < 6 | < 6 | < 6 | < 6 | CCNC(=O)Nc1ccc(-c2nc(N3CCOC[C@@H]3C)c3c(n2)C(C)(C)S(=O)(=O)C3)cc1 [CZ415] |
